In patent US20240158392A1 (Janssen Biotech, Inc., priority 2021, published 2024):

The compounds below were run against SIK2 (Homo sapiens, UniProt Q9H0K1) (assay: SIK2 Enzymatic Assay High Version 2 (High ATP)). Conditions: not given.
Type: biochemical
Outline: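 At room temperature, enzyme (6 nM, 2× final) was preincubated with compound for 30 min, then 6 mM ATP and 400 μM HDAC5tide (both 2× final) were added for 2 h. ADP formed was measured by ADP-Glo Max (2 h reagent, 1 h detection) using luminescence.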

Chain of SIK2 (Q9H0K1 whole entry, species assumed): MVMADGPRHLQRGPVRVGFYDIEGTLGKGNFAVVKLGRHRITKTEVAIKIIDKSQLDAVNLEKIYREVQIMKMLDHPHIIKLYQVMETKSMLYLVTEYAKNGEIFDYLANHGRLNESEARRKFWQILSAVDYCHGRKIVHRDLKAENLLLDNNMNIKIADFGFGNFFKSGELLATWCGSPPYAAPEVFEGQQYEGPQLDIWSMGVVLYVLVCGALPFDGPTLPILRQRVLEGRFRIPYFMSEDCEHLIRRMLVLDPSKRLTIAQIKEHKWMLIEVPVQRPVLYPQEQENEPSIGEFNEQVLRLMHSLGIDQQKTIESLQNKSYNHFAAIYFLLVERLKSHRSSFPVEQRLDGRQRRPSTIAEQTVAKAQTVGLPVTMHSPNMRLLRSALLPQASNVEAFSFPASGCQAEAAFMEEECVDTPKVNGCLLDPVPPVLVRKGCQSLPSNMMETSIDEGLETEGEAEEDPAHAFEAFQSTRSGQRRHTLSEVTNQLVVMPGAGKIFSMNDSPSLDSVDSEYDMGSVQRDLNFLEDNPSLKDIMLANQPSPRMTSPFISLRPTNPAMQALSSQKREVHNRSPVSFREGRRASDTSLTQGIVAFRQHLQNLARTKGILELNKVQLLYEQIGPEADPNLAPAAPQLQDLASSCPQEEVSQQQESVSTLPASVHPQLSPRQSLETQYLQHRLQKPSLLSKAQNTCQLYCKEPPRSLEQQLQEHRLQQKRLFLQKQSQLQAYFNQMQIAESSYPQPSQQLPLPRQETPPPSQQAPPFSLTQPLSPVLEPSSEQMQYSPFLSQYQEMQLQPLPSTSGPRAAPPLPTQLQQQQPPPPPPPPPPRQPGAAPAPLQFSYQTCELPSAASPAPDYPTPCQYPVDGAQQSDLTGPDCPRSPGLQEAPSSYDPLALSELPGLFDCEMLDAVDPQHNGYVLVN

SMILES	IC50
CNC(=O)c1ccnc(Nc2cc3cc(-c4cc(C)ncc4O[C@H]4C[C@H]5COC[C@@H](C4)N5S(=O)(=O)C4CC4)ccn3n2)c1 [Example 635, 2-((5-(5-(((1R,5S,7s)-9-(cyclopropylsulfonyl)-3-oxa-9-azabicyclo[3.3.1]nonan-7-yl)oxy)-2-methylpyridin-4-yl)pyrazolo[1,5-a]pyridin-2-yl)amino)-N-methylisonicotinamide]	0.00197 µM
Cc1cc(-c2ccn3nc(Nc4cnc(C(=O)NCC(C)(C)O)cn4)cc3c2)c(O[C@H]2C[C@H]3COC[C@@H](C2)N3)cn1 [Example 390, N-(2-hydroxy-2-methyl-propyl)-5-[[5-[2-methyl-5-[[(1S,5R,7s)-3-oxa-9-azabicyclo[3.3.1]nonan-7-yl]oxy]-4-pyridyl]pyrazolo[1,5-a]pyridin-2-yl]amino]pyrazine-2-carboxamide]	> 50 µM
CNC(=O)c1c(OC)cc(Nc2cc3cc(-c4cc(C)ncc4OC4C[C@H]5COC[C@@H](C4)N5)ccn3n2)cc1OC (stereo partly drawn) [Example 357, 2,6-dimethoxy-N-methyl-4-[[5-[2-methyl-5-[[(1S,5R)-3-oxa-9-azabicyclo[3.3.1]nonan-7-yl]oxy]-4-pyridyl]pyrazolo[1,5-a]pyridin-2-yl]amino]benzamide]	0.00101 µM
Cc1cc(-c2ccn3nc(Nc4ncc(F)cn4)cc3c2)c(O[C@H]2C[C@H]3COC[C@@H](C2)N3)cn1 [Example 404, N-(5-fluoropyrimidin-2-yl)-5-[2-methyl-5-[[(1S,5R,7s)-3-oxa-9-azabicyclo[3.3.1]nonan-7-yl]oxy]-4-pyridyl]pyrazolo[1,5-a]pyridin-2-amine]	0.058 µM
Cc1cc(-c2ccn3nc(NC(=O)C4CC4)cc3c2)c(O[C@H]2CN(C)[C@H]2C)cn1 (single isomer, unassigned) [Example 456, (*S, *S)—N-[5-[5-(1,2-dimethylazetidin-3-yl)oxy-2-methyl-4-pyridyl]pyrazolo[1,5-a]pyridin-2-yl]cyclopropanecarboxamide]	0.0204 µM
CNC(=O)c1ccc(Nc2cc3cc(-c4cc(C)ncc4O[C@H]4C[C@H]5COC[C@@H](C4)N5C(C)=O)ccn3n2)nc1 [Example 356, 6-[[5-[5-[[(1S,5R)-9-acetyl-3-oxa-9-azabicyclo[3.3.1]nonan-7-yl]oxy]-2-methyl-4-pyridyl]pyrazolo[1,5-a]pyridin-2-yl]amino]-N-methyl-pyridine-3-carboxamide]	< 0.000847 µM
Cc1cc(-c2ccn3nc(NC(=O)C4CC4)cc3c2)c(O[C@H]2C[C@H]3COC[C@@H](C2)N3C)cn1 [Example 460, N-[5-[2-methyl-5-[[(1S,5R)-9-methyl-3-oxa-9-azabicyclo[3.3.1]nonan-7-yl]oxy]-4-pyridyl]pyrazolo[1,5-a]pyridin-2-yl]cyclopropanecarboxamide]	0.0413 µM

Same assay, conditions: enzyme 6 nM, 6 mM ATP and 400 μM HDAC5tide (each 2× final concentration); 30 minutes pre-incubation, 2 hours; ADP-Glo Max luminescence; read-out: SIK2 high ATP IC50 (μM) (Test Example 2)

IC50	SMILES
0.0271 µM	Cc1cc(-c2ccn3nc(Nc4cc(C)nc(C)n4)cc3c2)c(OCC(C)(C)N)cn1 [Example 359, 5-[5-(2-amino-2-methyl-propoxy)-2-methyl-4-pyridyl]-N-(2,6-dimethylpyrimidin-4-yl)pyrazolo[1,5-a]pyridin-2-amine]
< 0.000847 µM	Cc1cc(Nc2cc3cc(-c4cc(OC(F)F)ncc4OCC(C)(C)C#N)ccn3n2)nc(N)n1 [Example 682, 3-[[4-[2-[(2-amino-6-methyl-pyrimidin-4-yl)amino]pyrazolo[1,5-a]pyridin-5-yl]-6-(difluoromethoxy)-3-pyridyl]oxy]-2,2-dimethyl-propanenitrile]
0.0147 µM	Cc1cc(-c2ccn3nc(Nc4cc(C)nc(C)n4)cc3c2)c(OC[C@H]2COC3(CCCC3)O2)cn1 (single isomer, unassigned) [Example 544, (*S)—N-(2,6-dimethylpyrimidin-4-yl)-5-[5-(6,9-dioxaspiro[4.4]nonan-8-ylmethoxy)-2-methyl-4-pyridyl]pyrazolo[1,5-a]pyridin-2-amine]
0.00667 µM	Cc1cc(-c2ccn3nc(Nc4cc(C)nc(C(C)(C)C)n4)cc3c2)c(OC[C@H]2OCC[C@@H]2O)cn1 [Example 298, (2R,3S)-2-[[4-[2-[(2-tert-butyl-6-methyl-pyrimidin-4-yl)amino]pyrazolo[1,5-a]pyridin-5-yl]-6-methyl-3-pyridyl]oxymethyl]tetrahydrofuran-3-ol]
< 0.000847 µM	Cc1cc(-c2ccn3nc(Nc4cc(C)c(=O)n(C)n4)cc3c2)c(OC[C@](C)(N)C(F)(F)F)cn1 (single isomer, unassigned) [Example 312, (*S)-6-[[5-[5-(2-amino-3,3,3-trifluoro-2-methyl-propoxy)-2-methyl-4-pyridyl]pyrazolo[1,5-a]pyridin-2-yl]amino]-2,4-dimethyl-pyridazin-3-one]
0.0032 µM	Cc1cc(-c2ccn3nc(NC(=O)C4CC4)cc3c2)c(O[C@@H]2CNC[C@@H]2F)cn1 [Example 279, N-[5-[5-[(3R,4S)-4-fluoropyrrolidin-3-yl]oxy-2-methyl-4-pyridyl]pyrazolo[1,5-a]pyridin-2-yl]cyclopropanecarboxamide]
< 0.000847 µM	CC#Cc1cc(-c2ccn3nc(Nc4ccn(C)n4)cc3c2)c(OCC2(F)CNC2)cn1 [Example 437, 5-[5-[(3-fluoroazetidin-3-yl)methoxy]-2-prop-1-ynyl-4-pyridyl]-N-(1-methylpyrazol-3-yl)pyrazolo[1,5-a]pyridin-2-amine]
0.00309 µM	COC1(COc2cnc(C)cc2-c2ccn3nc(NC(=O)C4CC4)cc3c2)CNC1 [Example 233, N-[5-[5-[(3-methoxyazetidin-3-yl)methoxy]-2-methyl-4-pyridyl]pyrazolo[1,5-a]pyridin-2-yl]cyclopropanecarboxamide]
0.00153 µM	Cc1cc(-c2ccn3nc(Nc4cc(C)c(=O)n(C)n4)cc3c2)c(OCC(C)(C)C#N)cn1 [Example 269, 3-[[4-[2-[(1,5-dimethyl-6-oxo-pyridazin-3-yl)amino]pyrazolo[1,5-a]pyridin-5-yl]-6-methyl-3-pyridyl]oxy]-2,2-dimethyl-propanenitrile]
0.00102 µM	CC#Cc1cc(-c2ccn3nc(NC(=O)C4CC4)cc3c2)c(O[C@@H]2CNC[C@@H]2F)cn1 [Example 281, N-[5-[5-[(3R,4S)-4-fluoropyrrolidin-3-yl]oxy-2-prop-1-ynyl-4-pyridyl]pyrazolo[1,5-a]pyridin-2-yl]cyclopropanecarboxamide]
0.00245 µM	Cc1cc(-c2ccn3nc(Nc4ccc5cc[nH]c5n4)cc3c2)c(O[C@H]2CC[C@H](O)CC2)cn1 [Example 239, 4-[[6-methyl-4-[2-(1H-pyrrolo[2,3-b]pyridin-6-ylamino)pyrazolo[1,5-a]pyridin-5-yl]-3-pyridyl]oxy]cyclohexanol]
0.0377 µM	Cc1cc(-c2ccn3nc(Nc4cc(C)nc(C)n4)cc3c2)c(OC[C@@H]2CCC3(CCCC3)O2)cn1 (single isomer, unassigned) [Example 230, (*S)—N-(2,6-dimethylpyrimidin-4-yl)-5-[2-methyl-5-(9-oxaspiro[4.4]nonan-8-ylmethoxy)-4-pyridyl]pyrazolo[1,5-a]pyridin-2-amine]
0.00407 µM	CC#Cc1cc(-c2ccn3nc(Nc4ccn(C)n4)cc3c2)c(O[C@H]2CC[C@H](O)CC2)cn1 [Example 187, trans-4-[[4-[2-[(1-methylpyrazol-3-yl)amino]pyrazolo[1,5-a]pyridin-5-yl]-6-prop-1-ynyl-3-pyridyl]oxy]cyclohexanol]
0.00114 µM	Cc1cc(-c2ccn3nc(Nc4cnc5cc[nH]c5n4)cc3c2)c(O[C@H]2CC[C@H](O)CC2)cn1 [Example 289, 4-[[6-methyl-4-[2-(5H-pyrrolo[2,3-b]pyrazin-3-ylamino)pyrazolo[1,5-a]pyridin-5-yl]-3-pyridyl]oxy]cyclohexanol]
0.0862 µM	COc1cc(Nc2cc3cc(-c4cc(C)ncc4OCC(C)(C)O)ccn3n2)cc(OC)c1C(=O)NC1CC1 [Example 626, N-cyclopropyl-4-[[5-[5-(2-hydroxy-2-methyl-propoxy)-2-methyl-4-pyridyl]pyrazolo[1,5-a]pyridin-2-yl]amino]-2,6-dimethoxy-benzamide]
0.00307 µM	Cc1cc(-c2ccn3nc(NC(=O)C4CC4)cc3c2)c(OCC2(C#N)CCNC2)cn1 (single isomer, unassigned) [Example 210, (*S)—N-[5-[5-[(3-cyanopyrrolidin-3-yl)methoxy]-2-methyl-4-pyridyl]pyrazolo[1,5-a]pyridin-2-yl]cyclopropanecarboxamide]
0.0178 µM	Cc1cc(-c2cn3cc(Nc4cc(C)nc(C)n4)nc3cn2)c(O[C@H]2CC[C@@H](O)CC2)cn1 [Example 506, 4-[[4-[2-[(2,6-dimethylpyrimidin-4-yl)amino]imidazo[1,2-a]pyrazin-6-yl]-6-methyl-3-pyridyl]oxy]cyclohexanol]
< 0.000847 µM	Cc1cc(-c2ccc3nc(NC(=O)C4CC4)cn3c2)c(O[C@H]2CC[C@H](O)CC2)cn1 [Example 504, N-[6-[5-(4-hydroxycyclohexoxy)-2-methyl-4-pyridyl]imidazo[1,2-a]pyridin-2-yl]cyclopropanecarboxamide]
0.0234 µM	Cc1cc(-c2ccn3nc(NC(=O)C4CC4)cc3c2)c(OC[C@](C)(O)C2CC2)cn1 (single isomer, unassigned) [Example 193, (*R)—N-(5-(5-(2-cyclopropyl-2-hydroxypropoxy)-2-methylpyridin-4-yl)pyrazolo[1,5-a]pyridin-2-yl)cyclopropanecarboxamide]
0.00164 µM	Cc1cc(Nc2cc3cc(-c4cc(OC(F)F)ncc4OC[C@H]4CC(=O)NC4(C)C)ccn3n2)nc(C)n1 (single isomer, unassigned) [Example 732, (*S)-4-[[6-(difluoromethoxy)-4-[2-[(2,6-dimethylpyrimidin-4-yl)amino]pyrazolo[1,5-a]pyridin-5-yl]-3-pyridyl]oxymethyl]-5,5-dimethyl-pyrrolidin-2-one]
0.00103 µM	CCN1CC[C@@H](COc2cnc(C#N)cc2-c2ccn3nc(NC(=O)C4CC4)cc3c2)C1 [Example 616, N-[5-[2-cyano-5-[[(3R)-1-ethylpyrrolidin-3-yl]methoxy]-4-pyridyl]pyrazolo[1,5-a]pyridin-2-yl]cyclopropanecarboxamide]
